Active and inactive are the calls of the source. The calls are words filed in the database; no cut-off is given here.
How the values were obtained:
[1] = target: Amyloid-beta precursor protein (Homo sapiens) (UniProt P05067); assay: Disaggregation of amyloid beta (25 to 35) (unknown origin) self aggregation at 15 uM incubated for 24 hrs by transmission electron microscopy analysis
N2a = assay: Cytotoxicity against mouse Neuro2a cells assessed as decrease in cell viability at 120 uM incubated for 24 hrs by MTT assay; type: toxicity, cell-based
[2] = Volume of distribution of steady state in Sprague-Dawley rat at 10 mg/kg,iv measured at 0.083 to 24 hrs post administration by LC-MS/MS analysis; type: ADME, organism-based; conditions: in vivo, time 0.083-24 hrs, read-out: Vdss
PC-12 [3] = assay: Neuroprotective activity against amyloid beta (25 to 35)-induced rat PC12 cells assessed as decrease in NF-kappaB expression level at 7.5 to 30 uM preincubated for 30 mins followed by amyloid beta (25 to 35) addition and measured after 24 hrs by western blot assay; type: functional, cell-based; conditions: dose 7.5-30 µM, time 24.5 hrs
[4] = Half life in Sprague-Dawley rat at 10 mg/kg,iv measured at 0.083 to 24 hrs post administration by LC-MS/MS analysis; type: ADME, organism-based; conditions: in vivo, time 0.083-24 hrs
PC-12 [5] = assay: Neuroprotective activity against amyloid beta (25 to 35)-induced rat PC12 cells assessed as decrease in p38 phosphorylation level at 7.5 to 30 uM preincubated for 30 mins followed by amyloid beta (25 to 35) addition and measured after 24 hrs by western blot assay; type: functional, cell-based; conditions: dose 7.5-30 µM, time 24.5 hrs
PC-12 [6] = assay: Neuroprotective activity against rat PC12 cells assessed as reduction in amyloid beta (25 to 35)-induced cytotoxicity incubated for 4 hrs followed by amyloid beta (25 to 35) treatment for 24 hrs by MTT assay; type: functional, cell-based
[7] = AUC (0-infinity) in Sprague-Dawley rat at 60 mg/kg,po measured at 0.25 to 24 hrs post administration by LC-MS/MS analysis; type: ADME, organism-based; set-up: dose 60 mg/kg, time 0.25-24 hrs, route po; conditions: in vivo
Mus musculus [8] = assay: Antialzheimer activity against amyloid beta (25 to 35)-induced brain injury ICR mouse model assessed as increase in NeuN expression level in hippocampal CA3 region at 50 mg/kg,po administrated for 21 days by immunohistochemistry analysis; type: functional, organism-based; conditions: time 21.0 day
[9] = Cytotoxicity against human HUVEC cells assessed as cell viability at 120 uM incubated for 24 hrs by MTT assay; type: toxicity, cell-based; conditions: read-out: Activity
[10] = AUC (0-infinity) in Sprague-Dawley rat at 10 mg/kg,iv measured at 0.083 to 24 hrs post administration by LC-MS/MS analysis; type: ADME, organism-based; set-up: dose 10 mg/kg, time 0.083-24 hrs, route iv; conditions: in vivo
[11] = Tmax in Sprague-Dawley rat at 60 mg/kg,po measured at 0.25 to 24 hrs post administration by LC-MS/MS analysis; type: ADME, organism-based; conditions: in vivo, time 0.25-24 hrs
Mus musculus [12] = assay: Antialzheimer activity against amyloid beta (25 to 35)-induced brain injury ICR mouse model assessed as attenuation of pathological change in hippocampal CA3 region at 12.5 to 50 mg/kg,po administrated for 21 days by hematoxylin and eosin staining based microscopic analysis; type: functional, organism-based; conditions: dose 12.5-50 mg/kg, time 21.0 day
[13] = MRT (0 to t) in Sprague-Dawley rat at 10 mg/kg,iv measured at 0.083 to 24 hrs post administration by LC-MS/MS analysis; type: ADME, organism-based; conditions: in vivo, time 0.083-24 hrs
PC-12 [14] = assay: Neuroprotective activity against amyloid beta (25 to 35)-induced rat PC12 cells assessed as decrease in JNK expression level at 7.5 to 30 uM preincubated for 30 mins followed by amyloid beta (25 to 35) addition and measured after 24 hrs by western blot assay; type: functional, cell-based; conditions: dose 7.5-30 µM, time 24.5 hrs
PC-12 [15] = assay: Neuroprotective activity against rat PC12 cells assessed as reduction in amyloid beta (25 to 35)-induced cytotoxicity at 2.67 to 91.27 uM incubated for 4 hrs followed by amyloid beta (25 to 35) treatment for 24 hrs by MTT assay relative to control; type: functional; set-up: scale not given: the % may be the effect or the level left; conditions: dose 2.67-91.27 µM, time 28 hrs
PC-12 [16] = assay: Neuroprotective activity against amyloid beta (25 to 35)-induced rat PC12 cells assessed as decrease in total tau protein expression level at 7.5 to 30 uM preincubated for 30 mins followed by amyloid beta (25 to 35) addition and measured after 24 hrs by western blot assay; type: functional, cell-based; conditions: dose 7.5-30 µM, time 24.5 hrs
Mus musculus [17] = assay: Antialzheimer activity against amyloid beta (25 to 35)-induced brain injury ICR mouse model assessed as increase in NeuN expression level in hippocampal CA1 region at 50 mg/kg,po administrated for 21 days by immunohistochemistry analysis; type: functional, organism-based; conditions: time 21.0 day
PC-12 [18] = assay: Neuroprotective activity against amyloid beta (25 to 35)-induced rat PC12 cells assessed as decrease in p38 expression level at 7.5 to 30 uM preincubated for 30 mins followed by amyloid beta (25 to 35) addition and measured after 24 hrs by western blot assay; type: functional, cell-based; conditions: dose 7.5-30 µM, time 24.5 hrs
Mus musculus [19] = assay: Antialzheimer activity against amyloid beta (25 to 35)-induced spatial memory deficit ICR mouse model assessed as increase in exploration time spent at 50 mg/kg,po observed at 16 to 20 days of administration by morris water maze test; type: functional, organism-based; conditions: time 16-20 day
Mus musculus [20] = assay: Antialzheimer activity against amyloid beta (25 to 35)-induced cognitive deficit ICR mouse model assessed as increase in discrimination index at 25 mg/kg,po observed after 24 hrs of administration by novel object recognition test; type: functional, organism-based
[21] = Toxicity in ICR mouse assessed as pathological changes in heart at 12.5 to 50 mg/kg,po administrated for 20 days by hematoxylin and eosin staining based microscopic analysis; type: organism-based; conditions: in vivo, 480 h, dose 12.5-50 mg/kg, time 20 day
PC-12 [22] = assay: Neuroprotective activity against amyloid beta (25 to 35)-induced rat PC12 cells assessed as reduction in amyloid beta (25 to 35)-induced apoptosis rate at 7.5 uM incubated for 15 mins by Annexin V-FITC/PI staining based flow cytometric analysis (reference value: 2.9%); type: functional; set-up: scale not given: the % may be the effect or the level left; conditions: 0.25 h
[23] = C0 in Sprague-Dawley rat at 10 mg/kg,iv measured at 0.083 to 24 hrs post administration by LC-MS/MS analysis; type: ADME, organism-based; conditions: in vivo, time 0.083-24 hrs
PC-12 [24] = assay: Neuroprotective activity against amyloid beta (25 to 35)-induced rat PC12 cells assessed as decrease in JNK phosphorylation level at 7.5 to 30 uM preincubated for 30 mins followed by amyloid beta (25 to 35) addition and measured after 24 hrs by western blot assay; type: functional, cell-based; conditions: dose 7.5-30 µM, time 24.5 hrs
PC-12 [25] = assay: Neuroprotective activity against amyloid beta (25 to 35)-induced rat PC12 cells assessed as decrease in NF-kappaB phosphorylation level at 7.5 to 30 uM preincubated for 30 mins followed by amyloid beta (25 to 35) addition and measured after 24 hrs by western blot assay; type: functional, cell-based; conditions: dose 7.5-30 µM, time 24.5 hrs
PC-12 [26] = assay: Neuroprotective activity against rat PC12 cells assessed as reduction in amyloid beta (25 to 35)-induced cytotoxicity at 15 uM incubated for 4 hrs followed by amyloid beta (25 to 35) treatment for 24 hrs by MTT assay relative to control; type: functional; set-up: scale not given: the % may be the effect or the level left; conditions: time 28 hrs
PC-12 [27] = assay: Neuroprotective activity against amyloid beta (25 to 35)-induced rat PC12 cells assessed as decrease in beta-secretase protein expression level at 3.75 to 30 uM incubated for 30 mins followed by amyloid beta (25 to 35) addition and measured after 24 hrs by ELISA; type: functional, cell-based; conditions: dose 3.75-30 µM, time 24.5 hrs

Sequence of Amyloid-beta precursor protein (Homo sapiens) (P05067 whole entry): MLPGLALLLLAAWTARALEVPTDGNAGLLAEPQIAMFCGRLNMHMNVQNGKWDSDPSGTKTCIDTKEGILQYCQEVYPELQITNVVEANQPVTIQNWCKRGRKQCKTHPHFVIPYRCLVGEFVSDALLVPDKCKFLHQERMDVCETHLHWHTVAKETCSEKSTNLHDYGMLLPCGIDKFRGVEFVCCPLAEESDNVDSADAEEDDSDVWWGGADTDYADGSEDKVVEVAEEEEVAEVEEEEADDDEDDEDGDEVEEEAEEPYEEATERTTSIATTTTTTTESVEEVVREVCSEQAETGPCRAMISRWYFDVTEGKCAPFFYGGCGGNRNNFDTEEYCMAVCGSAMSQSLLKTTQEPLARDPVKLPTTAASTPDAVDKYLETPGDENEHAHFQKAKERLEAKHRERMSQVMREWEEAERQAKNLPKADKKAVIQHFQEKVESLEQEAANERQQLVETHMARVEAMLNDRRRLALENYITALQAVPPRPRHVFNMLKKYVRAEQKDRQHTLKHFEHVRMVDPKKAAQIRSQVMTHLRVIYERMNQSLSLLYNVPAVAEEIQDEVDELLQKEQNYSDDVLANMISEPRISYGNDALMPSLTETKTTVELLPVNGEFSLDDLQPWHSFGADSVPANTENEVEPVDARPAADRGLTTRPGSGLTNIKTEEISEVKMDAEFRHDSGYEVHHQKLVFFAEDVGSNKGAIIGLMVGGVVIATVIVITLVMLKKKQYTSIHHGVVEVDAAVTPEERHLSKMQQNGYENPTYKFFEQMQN

For `CC1(C)CCC[C@](C)([C@H]2CC[C@]3(C)[C@@H]2[C@H](O)C[C@@H]2[C@@]4(C)CC[C@H](OC(=O)NCc5ccccc5)C(C)(C)[C@@H]4CC[C@]23C)O1`, which Activity [1] is on record?
Its Activity is “Active”.

And the Activity (N2a)?
Its Activity is “Toxic”.

What about the Vd [2] of the same molecule?
Its Vd is 0.133 L/kg.

And the Activity (PC-12 [3])?
The Activity was “Active”.

And the half-life [4]?
The half-life was 2.6 h.

And the Activity (PC-12 [5])?
Its Activity is “Active”.

And the EC50 (PC-12 [6])?
The EC50 was 13.2 µM.

What about the AUC(0-inf) [7] of the same molecule?
Its AUC(0-inf) is 326 ng·h/mL.

And the Activity (Mus musculus [8])?
Its Activity is “Active”.

What about the viability at 24 h, 120 µM [9] of the same molecule?
Its viability at 24 h, 120 µM is over 50%.

And the AUC(0-inf) [10]?
The AUC(0-inf) was 40700 ng·h/mL.

And the Tmax [11]?
Its Tmax is 1.33 h.

What about the Activity (Mus musculus [12]) of the same molecule?
Its Activity is “Active”.

And the MRT last [13]?
The MRT last was 0.426 h.

What about the Activity (PC-12 [14]) of the same molecule?
The Activity was “Active”.

And the Activity (PC-12 [15])?
Its Activity is 14.89%.

What about the Activity (PC-12 [16]) of the same molecule?
Its Activity is “Active”.

What about the Activity (Mus musculus [17]) of the same molecule?
Its Activity is “Active”.

What about the Activity (PC-12 [18]) of the same molecule?
The Activity was “Active”.

And the Activity (Mus musculus [19])?
The Activity was “Active”.

What about the Activity (Mus musculus [20]) of the same molecule?
Its Activity is “Active”.

And the Activity [21]?
The Activity was “Non-Toxic”.

And the Activity (PC-12 [22])?
The Activity was 14.1%.

And the C0 [23]?
The C0 was 237 µg/mL.

And the Activity (PC-12 [24])?
Its Activity is “Active”.

And the Activity (PC-12 [25])?
The Activity was “Active”.

What about the Activity (PC-12 [26]) of the same molecule?
Its Activity is 73.01%.

And the Activity (PC-12 [27])?
Its Activity is “Active”.

Reference: ChEMBL document CHEMBL5247626, “In vitro and in vivo biological evaluation of newly synthesized multi-target 20(R)-panaxadiol derivatives for treating Alzheimer's disease” (Eur J Med Chem, 2022)
